Laboratory results reported in patent US5281604A, “Angiotensin II receptor blocking 2,3,6-substituted quinazolinones” (American Cyanamid Company, priority 1993, dated 1994).

Biological target: T1, Angiotensin II Receptor (Bos taurus, UniProt P25104)
T1 construct: beef adrenal glands are processed as follows: fresh adrenal glands received on crushed ice are cleaned of fatty tissues; tissue Maxwell-Cohen (local slaughter house); host or cells: beef adrenal cortex, microsomal membranes (100,000×g pellet)
T1 sequence (P25104 1-359): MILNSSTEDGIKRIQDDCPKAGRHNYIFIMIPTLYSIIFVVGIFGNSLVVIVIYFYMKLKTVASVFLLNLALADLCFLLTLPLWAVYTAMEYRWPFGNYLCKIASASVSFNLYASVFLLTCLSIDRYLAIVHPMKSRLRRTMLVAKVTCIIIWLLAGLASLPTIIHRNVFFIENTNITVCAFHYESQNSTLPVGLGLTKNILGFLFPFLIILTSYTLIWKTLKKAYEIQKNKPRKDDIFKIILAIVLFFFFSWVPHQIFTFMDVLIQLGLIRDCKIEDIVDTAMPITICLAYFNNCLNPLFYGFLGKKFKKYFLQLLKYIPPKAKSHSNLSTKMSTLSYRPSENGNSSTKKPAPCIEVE
Test: Receptor Binding Assay: displacement of [125I](Sar1,Ile8)AngII from beef adrenal cortex microsomal membranes
Conditions: 60 min room temperature
Source text: Beef adrenals are obtained from a local slaughter house (Maxwell-Cohen).
[^125 I](Sar^1,Ile^8)AngII, S.A. 2200 Ci/mmole, is purchased from Dupont (NEN®, Boston, Mass.). All unlabeled AngII analogs, Dimethylsulfoxide (DMSO), nucleotides, bovine serum albumin (BSA) are purchased from Sigma Chemical Co., St. Louis, Mo. U.S.A.
Approximately sixteen (16) to twenty (20) beef adrenal glands are processed as follows: fresh adrenal glands received on crushed ice are cleaned of fatty tissues and the tough membranes encapsulating the glands are removed and discarded. The brownish tissue forming the adrenal cortex is scraped off and finely minced with scissors before homogenization. Care is taken to avoid contamination with medullary tissue during dissection. The scraped cortices are suspended in twenty volumes of an ice-cold buffer medium consisting of 10 mM Tris.HCl (pH 7.4 at 22° C.) and containing 1.0 mM EDTA and 0.2M sucrose. Unless otherwise indicated, all subsequent operations are done at 4° C. […] The homogenate is centrifuged first at low speed (3,000×g) for 10 min. The resulting pellet is discarded and the supernatant fluid recentrifuged at 10,000×g for 15 minutes to give a P2 pellet. This P2 pellet is discarded and the liquid phase is carefully decanted off in clean centrifuge tubes and recentrifuged at high speed (100,000×g) for 60 min. The translucent final pellet is harvested and combined in a small volume (20-50.0 ml) of 50.0 mM Tris.HCl buffer, pH 7.2. A 100 ul aliquot is withdrawn and the protein content of the preparation is determined by the Lowry's method (Lowry, O. H., Rosebrough, N. F., Farr, A. L. and Randall, R. J., Protein measurement with Folin phenol reagent. J. Biol. Chem., […], 265-275, 1951). The pelleted membrane is reconstituted in 50.0 mM Tris.HCl buffer containing 0.1 mM of phenylmethylsulfonyl fluoride (PMSF) to give approximately a protein concentration of 2.5 mg per ml of tissue suspension. The membrane preparation is finally aliquoted in 1.0 ml volumes and stored at -70° C. until use in the binding assays.
The binding of [^125 I](Sar^1.Ile^8)AngII to microsomal membranes is initiated by the addition of reconstituted membranes (1:10 vols.) in freshly made 50.0 mM Tris.HCl buffer, pH 7.4 containing 0.25% heat inactivated bovine serum albumin (BSA): 80 ul membrane protein (10 to 20 ug/assay) to wells already containing 100 ul of incubation buffer (as described above) and 20 ul [^125 I](Sar^1,Ile^8)AmgII (Specific Activity, 2200 Ci/mmole) Non-specific binding is measured in the presence of 1.0 uM unlabeled (Sar^1,Ile^8)AngII, added in 20 ul volume. Specific binding for [^125 I](Sar^1,Ile^8) AngII is greater than 90%. In competition studies, experimental compounds are diluted in dimethylsulfoxide (DMSO) and added in 20 ul to wells before the introduction of tissue membranes. This concentration of DMSO is found to have no negative effects on the binding of [^ 125I] (Sar^1,Ile^8) AngII to the membranes. Assays are performed in triplicate. The wells are left undisturbed for 60 min. at room temperature. […] Presoaking the filter sheet in 0.1% polyethyleneimine in normal saline (PEI/Saline) greatly reduces the radioactivity retained by the filter blanks. […] The filters are removed from the filter grid and counted in a Parkard® Cobra Gamma Counder for 1 min. […] The binding data are analyzed by the non-linear interactive "LUNDON-1" program (LUNDON SOFTWARE Inc., Cleveland, Ohio U.S.A.).

IC50: 37 nM
Compound: CCCCc1nc2ccc([C@H]3OC[C@@H]4ON5[C@@H](CCC5(C)C)[C@@H]43)cc2c(=O)n1Cc1ccc(-c2ccccc2-c2nnn[nH]2)cc1 (relative stereo) [Example 8, (3α, 3aα, 8aβ, 8bα)'-2-Butyl-6-(6,6-dimethylocta hydrofuro[3,4-d][1,2-b]isoxazol-3-yl)-3[[2'-(1H-tetrazol-5-yl)[1,1'biphenyl]-4yl]methyl]-4(3H) quinazolinone]
